Assay results taken from patent publication US20170114025A1, “METHODS FOR INHIBITING NECROPTOSIS” (Catalyst Therapeutics Pty Ltd, priority 2014, published 2017).
Read-outs that look alike come from different tables or passages of the source.

Tests used:
[1] = system: U937 human histiocytic leukemia cell line; test: Screening for inhibition of TSQ induced necroptosis, 96 well plate format; format: cell-based
Method: Screening Compounds for Inhibition of TSQ Induced Necroptosis, 96 Well Plate Format.
U937 human histiocytic leukemia cell line.
35,000 per well in 120 μL of media, counted and plated immediately prior to addition of inhibitor and death stimuli. Final well volume of 150 μL after addition of compounds and death stimuli
HTRPMI (WEHI Media kitchen, contains L-Glutamine and penicillin, streptomycin)—supplemented with 7.4% v/v FCS (Gibco, Precision Plus. Lot #1221437)
48 hours following addition of compounds and death stimuli
DMSO Final Concentration (% v/v): 0.2%
Compounds that are in the Death Stimulation Cocktail and their Final Concentrations: • hTNF-Fc (100 ng/ml)—produced by Silke lab, WEHI • Compound A (500 nM)—Smac mimetic, Tetralogic • Q-VD-OPh (10 μM)—MP Biomedicals
Analysis: • Cells treated with PI staining (1 μg/ml) and analysed by flow cytometry
TNF; S: Smac mimetic; Q: Q-VD-OPh): TSQ treatment ensures that cells specifically undergo necroptotic cell death. TNF activates the TNF receptor, Smac mimetic direct the signal away from proinflammatory signaling and toward the RIP1/RIP3-mediated cell death pathways, and Q-VD-OPh ensures that the apoptotic response is blocked leaving only the programmed necrosis response. The compounds' activity (solution in DMSO) tested in this TSQ-induced assay is evaluated by measuring their ability to block cell death as measured by flow cytometry after PI staining.

[2] = system: U937 cells; test: Counter screen: cell viability without TSQ cocktail (off target effect); format: cell-based
Method: In parallel, all compounds are tested for their ability to affect cell viability. The same U937 cells are treated with compound in DMSO without the TSQ cocktail. This counter screen enables evaluation of off-target effects. In this case gain, cell viability is measured by flow cytometry after PI staining.

[3] = U-937, U937, TSQ, 48 hours, average IC50, unit not given in Table 2 (titrations in nM), read-out: Cell based assay Average
[4] = U-937, U937, TSQ, 48 hours, unit not given in Table 2 (titrations given in nM), read-out: Cell based assay IC50
[5] = U937 without TSQ cocktail, compound at 500 nM
[6] = U937 without TSQ cocktail, compound at 1 uM
[7] = U937 without TSQ cocktail, compound at 5 uM
[8] = U937 without TSQ cocktail, compound at 10 uM
[9] = U-937, 48 h, read-out: Cell based assay Average
[10] = U-937, 48 h, read-out: Cell based assay IC50

| SMILES | IC50 [1, 3] [nM] | IC50 [1, 4] [nM] | Off target effect (% cell death) at 500 nM [2, 5] [%] | Off target effect (% cell death) at 1 uM [2, 6] [%] | Off target effect (% cell death) at 5 uM [2, 7] [%] | Off target effect (% cell death) at 10 uM [2, 8] [%] | IC50 [1, 9] [nM] | IC50 [1, 10] [nM] | Off target effect (% cell death) at 500 nM ([2]; human, 500 nM) [%] | Off target effect (% cell death) at 1 uM ([2]; human, 1 uM) [%] | Off target effect (% cell death) at 5 uM ([2]; human, 5 uM) [%] | Off target effect (% cell death) at 10 uM ([2]; human, 10 uM) [%] |
| --- | --- | --- | --- | --- | --- | --- | --- | --- | --- | --- | --- | --- |
| COCCNS(=O)(=O)c1cccc(Nc2nccc(N(C)c3ccc(NC(=O)Nc4ccc(OC(F)(F)F)cc4)cc3)n2)c1 [Compound 23, N-(2-Methoxyethyl)-3-(4-(methyl(4-(3-(4-(trifluoromethoxy)phenyl)-ureido)phenyl)amino)pyrimidin-2-ylamino)benzenesulfonamide] | 43.9 | 39 | 21 | 21 | 22 | 64 |  |  |  |  |  |  |
| CN(c1ccc(NC(=O)Nc2ccc(OC(F)(F)F)cc2)cc1)c1ccnc(Nc2cccc(C(N)=O)c2)n1 [Compound 8, 3-((4-(methyl(4-(3-(4-(trifluoromethoxy)phenyl)ureido)phenyl)amino)pyrimidin-2-yl)amino) benzamide] | 89.1 | 85.2 |  |  |  |  |  |  |  |  |  |  |
| Cc1ccc(Nc2nccc(N(C)c3ccc(NC(=O)Nc4ccc(OC(F)(F)F)cc4)cc3)n2)cc1S(N)(=O)=O [Compound 21, 2-Methyl-5-((4-(methyl(4-(3-(4-(trifluoromethoxy)phenyl)ureido)phenyl)amino)pyrimidin-2-yl)amino) benzenesulfonamide] | 58.4 | 72.7 | <20 | <20 | 51 | 79 |  |  |  |  |  |  |
| CN(c1ccc(NC(=O)Nc2ccc(OC(F)(F)F)cc2)cc1)c1ccnc(Nc2cccc(S(=O)(=O)N(C)C)c2)n1 [Compound 10, N,N-dimethyl-3-((4-(methyl(4-(3-(4-(trifluoromethoxy)phenyl)ureido)-phenyl)amino)pyrimidin-2-yl)amino)benzenesulfonamide] | 45.6 | 72.4 | <20 | <20 | 38 | 69 |  |  |  |  |  |  |
| CNS(=O)(=O)c1cccc(Nc2nccc(N(C)c3ccc(NC(=O)Nc4ccc(OC(F)(F)F)cc4)cc3)n2)c1 [Compound 9, N-methyl-3-((4-(methyl(4-(3-(4-(trifluoromethoxy)phenyl)ureido)-phenyl)amino)pyrimidin-2-yl)amino) benzenesulfonamide] | 42 | 73.1 | <20 | <20 | 43 | 88 |  |  |  |  |  |  |
| NS(=O)(=O)c1cccc(Nc2nccc(Nc3ccc(NC(=O)Nc4ccc(OC(F)(F)F)cc4)cc3)n2)c1 [Compound 11, 3-((4-((4-(3-(4-(trifluoromethoxy)phenyl)ureido)phenyl)amino)pyrimidin-2-yl)amino)benzenesulfonamide] | 359 | 359 | <20 | <20 | <20 | 20 |  |  |  |  |  |  |
| CN(c1ccc(CC(=O)Nc2ccc(OC(F)(F)F)cc2)cc1)c1ccnc(Nc2cccc(S(N)(=O)=O)c2)n1 [Compound 17, 2-(4-(methyl(2-((3-sulfamoylphenyl)amino)pyrimidin-4-yl)amino)phenyl)-N-(4-(trifluoromethoxy)phenyl)acetamide] | 1050 | 979 | 22 | 21 | <20 | 39 |  |  |  |  |  |  |
| CN(C(=O)Nc1ccc(OC(F)(F)F)cc1)c1ccc(N(C)c2ccnc(Nc3cccc(S(N)(=O)=O)c3)n2)cc1 [Compound 12, 3-((4-(methyl(4-(1-methyl-3-(4-(trifluoromethoxy)phenyl)ureido)phenyl)amino)pyrimidin-2-yl)amino) benzene sulfonamide] |  | 327 | 36 | 41 | 36 | 56 |  |  |  |  |  |  |
| Cc1ccc(Nc2nccc(N(C)c3ccc(NC(=O)Nc4ccc(OC(F)(F)F)cc4)cc3)n2)cc1C(=O)N(C)C [Compound 19, N,N,2-trimethyl-5-((4-(methyl(4-(3-(4-(trifluoromethoxy)phenyl)ureido)phenyl)amino)pyrimidin-2-yl)amino)benzamide] | 85.5 | 114 | 28 | 30 | 26 | 70 |  |  |  |  |  |  |
| CN(c1cccc(NC(=O)Nc2ccc(OC(F)(F)F)cc2)c1)c1ccnc(Nc2cccc(S(N)(=O)=O)c2)n1 [Compound 14, 3-((4-(methyl(3-(3-(4-(trifluoromethoxy)phenyl)ureido)phenyl)amino)pyrimidin-2-yl)amino) benzenesulfonamide] |  |  | <20 | <20 | <20 | 70 | 342 | 443 |  |  |  |  |
| Cc1cc(OC(F)(F)F)ccc1NC(=O)Nc1ccc(N(C)c2ccnc(Nc3cccc(S(N)(=O)=O)c3)n2)cc1 [Compound 20, 3-((4-(Methyl(4-(3-(2-methyl-4-(trifluoromethoxy)phenyl)ureido)phenyl)-amino)pyrimidin-2-yl)amino) benzenesulfonamide] | 109 | 143 |  |  |  |  |  |  | 24 | 29 | 33 | 80 |
| CN(c1ccc(NC(=O)Nc2ccc(OC(F)(F)F)cc2)cc1)c1ccnc(Nc2cccc(S(C)(=O)=O)c2)n1 [Compound 25, 1-(4-(Methyl(2-((3-(methylsulfonyl)phenyl)amino)pyrimidin-4-yl)amino)phenyl)-3-(4-(trifluoromethoxy)phenyl)urea] | 32.9 | 21.7 | <20 | <20 | 43 | 86 |  |  |  |  |  |  |
| CN(c1ccc(NC(=O)Nc2ccc(OC(F)(F)F)cc2)cc1)c1ccnc(Nc2ccc(F)c(S(N)(=O)=O)c2)n1 [Compound 18, 2-Fluoro-5-((4-(methyl(4-(3-(4-(trifluoromethoxy)phenyl)ureido)phenyl)amino)pyrimidin-2-yl)amino)benzenesulfonamide] | 59.4 | 91.7 | 27 | 29 | 94 | 93 |  |  |  |  |  |  |
| CN(c1ccc(NC(=O)Nc2ccc(OC(F)(F)F)cc2)cc1)c1ccnc(Nc2ccccc2S(N)(=O)=O)n1 [Compound 5, 2-(4-(Methyl(4-(3-(4-(trifluoromethoxy)phenyl)ureido)phenyl)amino)pyrimidin-2-ylamino)benzenesulfonamide] | > 10000 | ≥ 10000 |  |  |  |  |  |  |  |  |  |  |
| CN(c1ccc(NC(=O)C(C)(C)c2ccc(OC(F)(F)F)cc2)cc1)c1ccnc(Nc2cccc(S(N)(=O)=O)c2)n1 [Compound 22, 2-methyl-N-(4-(methyl(2-((3-sulfamoylphenyl)amino)pyrimidin-4-yl)amino)phenyl)-2-(4-(trifluoromethoxy)phenyl)propanamide] | 204 |  | <20 | <20 | 35 | 80 |  |  |  |  |  |  |
| CN(c1ccc(NC(=O)Nc2ccc(OC(F)(F)F)cc2)cc1)c1ccnc(Nc2cccc(S(N)(=O)=O)c2)c1 [Compound 15, 3-((4-(methyl(4-(3-(4-(trifluoromethoxy)phenyl)ureido)phenyl)amino)pyridin-2-yl)amino) benzenesulfonamide] | 304 | 328 | <20 | <20 | <20 | 43 |  |  |  |  |  |  |
| CCN(c1ccc(NC(=O)Nc2ccc(OC(F)(F)F)cc2)cc1)c1ccnc(Nc2cccc(S(N)(=O)=O)c2)n1 [Compound 26, 3-((4-(ethyl(4-(3-(4-(trifluoromethoxy)phenyl)ureido)phenyl)-amino)pyrimidin-2-yl)amino)benzenesulfonamide] |  |  | <20 | <20 | 43 | 69 | 93.6 | 126 |  |  |  |  |
